Data from patent US20240374743A1, “BLETILLA STRIATA POLYSACCHARIDE IRON COMPLEX, PREPARATION METHOD THEREFOR AND USE THEREOF” (priority 2023, published 2024).

System: mouse model of iron deficiency anemia
Test: Anti-iron deficiency anemia test in mice
Format: in vivo, ICR mice
Procedure: Experimental animals: 35 ICR mice, clean grade, body weight 20-25 g, female.
Establishment of a mouse model of iron deficiency anemia: All mice were kept in a stainless steel cage, in which wood dust was used as padding to prevent iron from other sources from affecting the experimental results. The mice were adaptively fed at room temperature (24±1° C.) and humidity 50% for 3 days and then randomly divided into 7 groups, with 5 mice in each group. Five mice fed with basal feed (Fe>100 mg kg^−1) were used as a blank control group, and the remaining 30 mice were given a low-iron diet (Fe: 10 mg·kg^−1, AIN93 standard) and randomly divided into a model group (Model), a positive drug (Niferex) group, a ferrous sulfate (FeSO4) group, and low-dose, medium-dose and high-dose groups of the Bletilla striata polysaccharide-iron (III) complex prepared in Example 4. After adaptive feeding, 0.1 mL of blood was taken from the cheeks of all mice, and the routine blood test data, serum iron three-term test data, and other data were determined by using a blood cell analyzer and used as normal values before modeling. Blood was drawn from the cheek of each mouse twice a week, but the blood was not collected. The mice in each group got free access to water. After three consecutive weeks of feeding, 0.2 mL of blood was collected from the cheeks of the mice in each group and then measured for various hematological indexes, and the body weight changes were recorded and plotted. […] Mice that failed in modeling were excluded and were not included in any drug group.
Method of administration: Mice were administered by gavage at 8 am every day for 28 consecutive days. During gavage, the mice in each group got free access to water and fed normal diet. The mice in the blank control group and the model control group were given the same volume of distilled water, the mice in the positive drug group were given a drug with an Fe content of 0.039 mg/kg, the mice in FeSO4 group were given a drug with an Fe content of 0.039 mg/kg, and the mice in the low-dose, medium-dose and high-dose groups of the Bletilla striata polysaccharide-iron (III) complex were given drugs with Fe contents of 0.0195 mg/kg, 0.039 mg/kg, and 0.078 mg/kg, respectively. Except the blank control group, the other six groups were given a low-iron feed. The body weight was weighed, recorded, and plotted once a week, and the animal state was observed.
Sample collection: After the last administration by gavage, the mice in each group got free access to water for 12 hours and sacrificed, whole blood was collected from the heart to determine various biochemical indexes, including hemoglobin content (Hb) in red blood cells, red blood cell count (RBC), hematocrit (HCT), mean corpuscular volume (MCV), mean corpuscular hemoglobin content (MCH), mean corpuscular hemoglobin concentration (MCHC), red blood cell volume distribution width (RDW), serum iron (SI) content, total iron binding capacity (TIBC), and erythropoietin (EPO). Liver and spleen tissues were taken, weighed, and recorded, and the organ index was calculated. The organ coefficient was calculated according to the following equation, and a histogram was plotted for analysis: […]

[1] = Fe 0.039 mg/kg (medium-dose group), gavage 28 days
[2] = gavage 28 days, complex low-, medium- and high-dose groups, Niferex and FeSO4 Fe 0.039 mg/kg

Q: Which HCT [1] does the source give for ferrous sulfate [FeSO4] here?
A: 0.29 ± 0.05

Q: What about the MCH [1] of the same substance?
A: 17.83 ± 0.63

Q: And the MCHC [1]?
A: 400.49 ± 16.03

Q: What about the MCV [1] of the same substance?
A: 51.20 ± 2.07

Q: And the RBC value [1]?
A: 6.85 10^12/L

Q: And the RDW [1]?
A: 25.56 ± 2.99

Q: What about the “effect on EPO compared with model group” value (Fe 0.039 mg/kg, gavage 28 days) of the same substance?
A: no regulatory effect on EPO

Q: What about the “liver index compared with model group” value (Fe 0.039 mg/kg, gavage 28 days) of the same substance?
A: not strong

Q: And the “body weight after 28 days of administration (comparison between groups)” value (Fe 0.039 mg/kg, gavage daily 28 days)?
A: extremely significantly different from that in the control group

Q: What about the “Hb value compared with control group” value [2] of the same substance?
A: not significantly different from that in the control group

Q: What about the “effect on total iron binding capacity (TIBC)” value [2] of the same substance?
A: best effect
